Measured values published in patent US20130289070A1, “Use of Levocabastine for Modulating Generation of Pro-Inflammatory Cytokines” (Bausch & Lomb Incorporated, priority 2007, published 2013).

Tested on: EoL-1 (human eosinophilic leukaemia cell line) cells
Assay: TNF-α-induced cytokine release, non-differentiated EoL-1 cells (NO PMA) (Luminex)
Type: cell-based
Set-up: key to Fractalkine (NO PMA), p of decrement / IL-1α (NO PMA), p of decrement / IL-1β (NO PMA), p of decrement / IL-1ra (NO PMA), p of decrement / IL-5 (NO PMA), p of decrement / IL-7 (NO PMA), p of decrement / IL-8 (NO PMA), p of decrement / IP-10 (NO PMA), p of decrement / MCP-1 (NO PMA), p of decrement / MIP-1β (NO PMA), p of decrement / VEGF (NO PMA), p of decrement: ns = non significant
Description: EoL-1 (human eosinophilic leukaemia cell line) cells (Saito et al., 1985; Mayumi, 1992) were maintained in RPMI-1640 medium with L-glutamine supplemented with 10% (v/v) FBS at 37° C. in a humidified atmosphere with 5% CO2. Where indicated, 24 h before the experiment 25 ng/mL PMA ((phorbol 12-myristate 13-acetate, purchased from Sigma Aldrich) was added to the medium to induce eosinophil granulation and differentiation (Ohtsu et al., 1993; Zimmermann et al., 2000).
Half-million cells were aliquoted per point in a 24 well plate; each experiment was performed in triplicate and carried out in parallel with eosinophils differentiated and non differentiated with PMA (25 ng/mL, 24 h). Cells were suspended in low serum medium (RPMI-1640, 0.1% (v/v) FBS). TNF-α was used to induce cytokine secretion as previously described by Steube et al. (2000), and the net release was obtained by comparison to the basal (non-TNF-α treated). In the first experiment we evaluated the concentration and time relation between TNF-α stimulation and cytokine release. Therefore, 5, 10, and 25 ng/mL of TNF-α was administered to the cells at 0, ½, 1, 2, 3, 6, 12 and 24 h (data not shown). An aliquot of 150 μL of supernate was collected for cytokines' analysis. […] Differentiated and non-differentiated EoL-1 cells were exposed from 0.1 to 2.3 mM levocabastine ([…]Levocabastine 0.05% solution eye drops containing cyclodextrins, without benzalkonium chloride), and aliquots of the supernates were collected after 12 and 24 h. The content of cytokines at time zero was estimated by treating the cells with 400 nM calcimycin (A-23187), which is a cytolytic agent that frees all the mediators from the cytoplasmic compartment. In addition, for each experiment we tested the effect of the vehicle, which was added to the wells in a concentration equal to the maximum amount used for drug dilution.
Samples (supernates 12 and 24 h) in triplicate were analyzed using Luminex 200™ (Luminex, Austin, Tex.) and Beadview software v1.0 (Upstate Cell Signaling Solutions, Temecula, Calif.).
All data are presented as mean±SEM for the indicated number of experiments. Statistical significance was determined by Newman-Keuls test after ANOVA using GraphPad Prism (version 3.0; GraphPad Software Inc., San Diego, Calif., USA). P-values<0.05 were considered to be significant.

[1] = 24 h, FN + Levocabastine 2 mM vs FN
[2] = 24 h, Levocabastine 2 mM vs TNF-α

In the case of C[C@@H]1CN([C@H]2CC[C@](C#N)(c3ccc(F)cc3)CC2)CC[C@]1(C(=O)O)c1ccccc1 [Levocabastine, levocabastine], the “IL-5 (NO PMA), p of decrement” value (12 h, TNF-α vs Lev 0.5 mM) is reported as “ns”, the “IL-7 (NO PMA), p of decrement” value (12 h, TNF-α vs Lev 0.5 mM) is reported as “ns” and the “IL-8 (NO PMA), p of decrement” value (12 h, TNF-α vs Lev 0.5 mM) is reported as “ns”. The “IP-10 (NO PMA), p of decrement” value (12 h, TNF-α vs Lev 0.5 mM) was “ns”, the “MCP-1 (NO PMA), p of decrement” value (12 h, TNF-α vs Lev 0.5 mM) was “ns” and the “MIP-1β (NO PMA), p of decrement” value (12 h, TNF-α vs Lev 0.5 mM) was “ns”. For the same compound, the “VEGF (NO PMA), p of decrement” value (12 h, TNF-α vs Lev 0.5 mM) was “ns”, the “Fractalkine (NO PMA), p of decrement” value (12 h, TNF-α vs Lev 1.0 mM) was “ns” and the “IL-1ra (NO PMA), p of decrement” value (12 h, TNF-α vs Lev 1.0 mM) was “ns”. The “IL-1α (NO PMA), p of decrement” value (12 h, TNF-α vs Lev 1.0 mM) was “ns”, the “IL-1β (NO PMA), p of decrement” value (12 h, TNF-α vs Lev 1.0 mM) was “ns” and the “IL-5 (NO PMA), p of decrement” value (12 h, TNF-α vs Lev 1.0 mM) was “ns”. For the same compound, the “IL-7 (NO PMA), p of decrement” value (12 h, TNF-α vs Lev 1.0 mM) was “ns”, the “IL-8 (NO PMA), p of decrement” value (12 h, TNF-α vs Lev 1.0 mM) was “ns” and the “IP-10 (NO PMA), p of decrement” value (12 h, TNF-α vs Lev 1.0 mM) was “ns”. For the same compound, the “MCP-1 (NO PMA), p of decrement” value (12 h, TNF-α vs Lev 1.0 mM) was “ns”, the “MIP-1β (NO PMA), p of decrement” value (12 h, TNF-α vs Lev 1.0 mM) was “ns” and the “VEGF (NO PMA), p of decrement” value (12 h, TNF-α vs Lev 1.0 mM) was “ns”. The “Fractalkine (NO PMA), p of decrement” value (12 h, TNF-α vs Lev 2.3 mM) was “ns”, the “IL-1ra (NO PMA), p of decrement” value (12 h, TNF-α vs Lev 2.3 mM) was “ns” and the “IL-1α (NO PMA), p of decrement” value (12 h, TNF-α vs Lev 2.3 mM) was “ns”. For the same compound, the “IL-1β (NO PMA), p of decrement” value (12 h, TNF-α vs Lev 2.3 mM) was “ns”, the “IL-5 (NO PMA), p of decrement” value (12 h, TNF-α vs Lev 2.3 mM) was “ns” and the “IL-7 (NO PMA), p of decrement” value (12 h, TNF-α vs Lev 2.3 mM) was “ns”. For the same compound, the “IL-8 (NO PMA), p of decrement” value (12 h, TNF-α vs Lev 2.3 mM) was “ns”, the “IP-10 (NO PMA), p of decrement” value (12 h, TNF-α vs Lev 2.3 mM) was “ns” and the “MCP-1 (NO PMA), p of decrement” value (12 h, TNF-α vs Lev 2.3 mM) was “ns”. The “MIP-1β (NO PMA), p of decrement” value (12 h, TNF-α vs Lev 2.3 mM) was “ns”, the “VEGF (NO PMA), p of decrement” value (12 h, TNF-α vs Lev 2.3 mM) was “ns” and the “MIP-1α (NO PMA), change of secretion” value (12 h, TNF-α vs Lev 0.1-2.3 mM) was “concentration dependent increase of”. The “MIP-1α (NO PMA), p of increase” value (12 h, TNF-α vs Lev 0.1-2.3 mM) was “cytokine secretion p < 0.01”, the “RANTES (NO PMA), change of secretion” value (12 h, TNF-α vs Lev 0.1-2.3 mM) was “increase of cytokine secretion” and the “RANTES (NO PMA), p of increase” value (12 h, TNF-α vs Lev 0.1-2.3 mM) was under 0.001. The “Fractalkine (NO PMA), p of decrement” value [1] was “ns”, the “G-CSF (NO PMA), p of decrement” value [1] was “ns” and the “GM-CSF (NO PMA), p of decrement” value [1] was “ns”. The “IL-1ra (NO PMA), p of decrement” value [1] was “P < 0.001”, the “IL-1α (NO PMA), p of decrement” value [1] was “ns” and the “IL-1β (NO PMA), p of decrement” value [1] was “ns”. The “IL-5 (NO PMA), p of decrement” value [1] was “ns”, the “IL-6 (NO PMA), p of decrement” value [1] was “P < 0.001” and the “IL-7 (NO PMA), p of decrement” value [1] was “ns”. For the same compound, the “IL-8 (NO PMA), p of decrement” value [1] was “P < 0.001”, the “IL-10 (NO PMA), p of decrement” value [1] was “ns” and the “IL-12p40 (NO PMA), p of decrement” value [1] was “P < 0.05”. For the same compound, the “IP-10 (NO PMA), p of decrement” value [1] was “ns”, the “MCP-1 (NO PMA), p of decrement” value [1] was “Increase” and the “MIP-1α (NO PMA), p of decrement” value [1] was “Increase”. The “MIP-1β (NO PMA), p of decrement” value [1] was “ns”, the “RANTES (NO PMA), p of decrement” value [1] was “Increase” and the “TGF-α (NO PMA), p of decrement” value [1] was “ns”. The “VEGF (NO PMA), p of decrement” value [1] was “P < 0.001”, the “Fractalkine (NO PMA), p of decrement” value [2] was “ns” and the “G-CSF (NO PMA), p of decrement” value [2] was “ns”. For the same compound, the “GM-CSF (NO PMA), p of decrement” value [2] was “ns”, the “IL-1ra (NO PMA), p of decrement” value [2] was “P < 0.001” and the “IL-1α (NO PMA), p of decrement” value [2] was “ns”. For the same compound, the “IL-1β (NO PMA), p of decrement” value [2] was “ns”, the “IL-5 (NO PMA), p of decrement” value [2] was “ns” and the “IL-6 (NO PMA), p of decrement” value [2] was “P < 0.001”. For the same compound, the “IL-7 (NO PMA), p of decrement” value [2] was “ns”.
